Columns and labels:
[1] = system: inter-Sertoli TJ-permeability barrier; assay: Transepithelial electrical resistance (TER) across Sertoli cell epithelia; type: cell-based, rat
Method: Preparation of Sertoli cell cultures. Primary Sertoli cells were isolated from 20-day-old Sprague-Dawley rat testes as previously described (Cheng et al., 1986). For low cell density cultures, Sertoli cells were plated at 5×10^4 cells/cm^2 in 100-mm Petri dishes [approximately 4.5×10^6 cells/100-mm dish/9 ml Ham's F12 Nutrient Mixture/Dulbecco's Modified Eagle's Medium (F12/DMEM, 1:1, vol/vol, Life Technologies, Inc.); F12/DMEM were supplemented with 15 mM HEPES, 1.2 g/L sodium bicarbonate, 10 μg/ml bovine insulin, 5 μg/ml human transferrin, 2.5 ng/ml EGF, 20 mg/L gentamicin and 10 μg/ml bacitracin. Sertoli cells cultured under low cell density formed monolayer epithelia without the assembly of inter-Sertoli TJs when monitored by TER measurement (Grima et al., 1998). However, both adherens junctions (AJs) and gap junctions (GJs) were formed (Chung et al., 1999). For high cell density cultures, Sertoli cells were plated on Matrigel™ (Collaborative Biochemical Products, Belford, Mass.)-coated (diluted 1:7 with F12/DMEM, vol/vol) 24-well dishes (effective surface area, approximately 1.88 cm^2, with 2 ml F12/DMEM per well) at a density of 0.6-3×10^6 cells/cm^2 as previously described (Grima et al., 1998) to allow formation of TJs, AJs and GJs, mimicking Sertoli cells found in vivo when assessed by various criteria (Grima et al., 1992). Cell cultures were incubated in a humidified atmosphere of 95% air and 5% CO2 (vol/vol) at 35° C. and TER readings were recorded 24 hr later and designated as cultures at day 1.
Assessing the integrity of the inter-Sertoli TJ-permeability barrier by measuring the transepithelial electrical resistance (TER) across Sertoli cell epithelia To assess the effects of occludin peptide on the assembly of inter-Sertoli TJs, Sertoli cells isolated from 20-day-old rat testes were cultured at 1.2×10^6 cells/cm^2 to allow the assembly of inter-Sertoli TJs, and the TER, which is a quantitative measurement of TJ integrity, across the Sertoli cell epithelia was quantified as previously described (Wong et al., 2000; Grima et al. 1998). Cells were plated on Matrigel™ (1:7)-coated HA filters in the apical chamber (Millipore, Bedford, Mass.) (25, 28). Great care was taken so that air bubbles were not trapped between Sertoli cell aggregates, which is the major obstacle to obtain steady TER across the Sertoli cell epithelia since air bubbles create physical pores between adjacent Sertoli cells. TER across the Sertoli cell epithelia at specific time points was determined by a Millicell electrical resistance system as described (Grima et al., 1998; Cheng and Chung, 2001). The resistance in ohm was multiplied by the effective surface area of the bicameral unit (approximately 0.6 cm^2) to yield the area resistance (ohm.cm^2). The net value of electrical resistance was then computed by substracting the background, which was measured on the Matrigel-coated cell-free chambers, from values of Sertoli cell-plated chambers. To minimize temperature-induced fluctuations during TER measurement, cultures were stabilized at room temperature for 20-30 minutes prior to recording TER across the Sertoli cell epithelia. Synthetic occludin peptide at 0.2-4 μM was included in the basal (0.5 ml F12/DMEM containing 0.03% DMSO, vol/vol, DMSO was used to solubilize the peptide in medium) and apical (0.5 ml F12/DME containing 0.03% DMSO, vol/vol) chambers of the bicameral units 24 hours after freshly isolated Sertoli cells were plated onto Matrigel-coated units (day 1). […]

[2] = system: Sertoli cells; assay: Trypan blue dye-exclusion cell viability test; type: cell-based, rat; details: peptide-treated cultures (data not shown)
[3] = system: spermatogenesis in adult rat testis; assay: Intratesticular injection: testicular weight and histological analysis of the testis; type: in vivo
Method: Intratesticular injection of occludin peptide and histological analysis of the testis. To assess the in vivo effects of the occludin peptide on spermatogenesis, peptide was administered to testes of adult rats by direct intratesticular injection as follows. Peptide was suspended in 0.9% sterile saline, sterilized by exposure to UV for 5 minutes. […] First, UV treated peptide retained the same retention time on reverse-phase HPLC using a Vydac C18 column (4.6×250 mm, i.d.) (Cheng et al., 1998; Cheng et al., 1989) when compared to peptide prior to the UV treatment. Second, the primary sequence of the UV-trated peptide remain unaltered when direct protein microsequencing was performed as described (Mruk and Cheng, 1990; Cheng et al., 1998; Cheng et al., 1989). Adult rats weighing between 250 and 300 g body weight were anesthetized with Metofane® before treatment. Rats received either 300 μl of 0.9% sterile saline (vehicle control), no treatment (control), or 1.5-10 mg of occludin peptide suspended in 300 μl of 0.9% sterile saline intratesticularly. The right testis of an animal received the peptide or vehicle and the left testis of the same animal was not treated and was used as a control. Peptide or vehicle was administered at 3 sites/testis with about 100 μl sample per site essentially as previously described (Grima et al., 1998; Eng et al., 1994). In another control group, rats were injected with a synthetic 22-amino acid peptide of NH2—[…]—COOH based on a known Sertoli cell protein, rat myotubularin (rMTM) (Li et al., 2000; Li et al., 2001), which had no sequence homology with occludin. Three rats were used in each treatment group and rats were sacrificed by CO2 asphyxiation at specific time points. Testes were removed immediately and fixed in 10% neutral buffered formalin. Testes were embedded in paraffin, and dehydrated in graded ethanol. For morphological analysis, 5 μm sections were cut and stained with hematoxylin and eosin. About 50 sections were examined at different sites for each testis using an Olympus BX40 microscope (Tokyo, Japan), interfaced to an Olympus PM-30 Exposure Control Unit.
Following HPLC purification, occludin or myotubularin peptide was suspended in 0.9% sterile saline and sterilized under UV for 5 minutes. Each rat in the experimental group received an intratesticular injection of 300 μl of saline containing either 0.15 mg or 1.5 mg of the corresponding purified peptide. The peptide suspension was distributed in each testis at 3 sites (approximately […] per site) as described in Materials and Methods and detailed elsewhere (Grima et al., 1992; Eng et al., 1994). […] FIGS. 6D-F are another control set of testes where rats received an intratesticular injection of the myotubularin peptide at 10 (FIG. 6D), 23 (FIG. 6E), and 40 days (FIG. 6F) post-treatment.

[4] = system: blood-testis barrier (BTB); assay: Blood-testis barrier integrity by micropuncture, [125I]-BSA in STF and RTF; type: in vivo, rat; details: for effect on BTB integrity: intratesticular injection 1.5 mg/testis
Method: Assessing the occludin-peptide induced disruption of the blood-testis barrier (BTB) by micropuncture techniques.
Briefly, 5 μg of BSA (Sigma, RIA grade, Mr 68 kDa) was radioiodinated by Iodogen (Fraker et al., 1978) using 1 mCi of [^125I]-sodium iodide (Amersham Pharmacia Biotech) as described (Cheng et al., 1983).
Detection of [^125]-BSA in seminiferous tubular fluid (STF) and rete testis fluid (RTF). 2, 4, 6, and 12-week after an intratesticular administration of 1.5 mg of either occludin or myotubularin peptide/testis as described above (administered at 3 sites to the right testis) where the left testis of the same animal was used as a control. Rats (n=4-6 rats per time point, approximately 250 gm b.w. at the time of peptide treatment) were anesthetized with ketamine HCl (Fort Dodge Laboratories, Inc., Fort Dodge Iowa) at 60 mg/kg b.w. Micropuncture was performed essentially as described (Turner et al., 1984; Stahler et al., 1991). Briefly, testes were exposed through an abdominal incision, and the efferent ducts were ligated with surgical silk thread. Testes were then returned to the scrotum, wound cleansed with 70% ethanol, surgically closed and animals were allowed to recover. Twenty-four hours after efferent duct ligation, rats were anesthetized by ketamine HCl, bilateral nephrectomy was performed to prevent renal excretion of [^125I]-BSA, and approximately 6×10^6 cpm of [^125I]-BSA was infused into the rat via jugular vein. Two hours after infusion, testes were removed, RTF and STF were collected as described (Turner et al, 1984; Stahler et al., 1991) for radioactivity determination in a γ-counter. The left testis from the same animal without receiving either the occludin or myotubularin peptide served as a control, and both STF and RTF were also collected for radioactivity determination to assess the integrity of the BTB.

[5] = Stability of peptide to UV sterilization (HPLC retention, microsequencing); type: physicochemical; details: UV 5 minutes, suspension in 0.9% saline
Method: Intratesticular injection of occludin peptide and histological analysis of the testis. To assess the in vivo effects of the occludin peptide on spermatogenesis, peptide was administered to testes of adult rats by direct intratesticular injection as follows. Peptide was suspended in 0.9% sterile saline, sterilized by exposure to UV for 5 minutes. […] First, UV treated peptide retained the same retention time on reverse-phase HPLC using a Vydac C18 column (4.6×250 mm, i.d.) (Cheng et al., 1998; Cheng et al., 1989) when compared to peptide prior to the UV treatment. Second, the primary sequence of the UV-trated peptide remain unaltered when direct protein microsequencing was performed as described (Mruk and Cheng, 1990; Cheng et al., 1998; Cheng et al., 1989). Adult rats weighing between 250 and 300 g body weight were anesthetized with Metofane® before treatment. Rats received either 300 μl of 0.9% sterile saline (vehicle control), no treatment (control), or 1.5-10 mg of occludin peptide suspended in 300 μl of 0.9% sterile saline intratesticularly. The right testis of an animal received the peptide or vehicle and the left testis of the same animal was not treated and was used as a control. Peptide or vehicle was administered at 3 sites/testis with about 100 μl sample per site essentially as previously described (Grima et al., 1998; Eng et al., 1994). […]

[6] = 1.5 mg/testis, 2, 4, 6 and 12 weeks, vs rats without peptide

| Substance | decline in TER compared to untreated controls ([1]; 4 μM, days 4-5) | toxicity to Sertoli cells ([1]; concluded from reversibility after peptide removal) | change in TER across Sertoli cell epithelia ([1]; peptide 0.2-4 μM added 24 hours after isolation, 1.2×10^6 cells/cm^2 (FIG. 4A)) | time until TER reading indistinguishable from controls after peptide removal (TJ barrier reassembly) ([1]; peptide removed on day 5 by two washes (FIG. 4B)) | cell viability versus control cultures [2] | reduction of seminiferous tubular diameter ([3]; 27 days, compared to control, vehicle or myotubularin peptide testes) | time for almost full recovery of testes ([3]; 68 days versus 27 days post-treatment) | germ cell repopulation ([3]; after 27 days post treatment) | appearance of the testis and the epididymis ([3]; after intratesticular injection) | elongated spermatids in seminiferous epithelium ([3]; between 8 and 16 days after treatment) | germ cells in epithelium, virtually all tubules examined ([3]; by 27 days after intratesticular injection) | morphology of tubules ([3]; by 47 days post treatment) | morphology of the seminiferous epithelium ([3]; by 68 days post treatment) | testicular weight ([3]; within 2 weeks after intratesticular injection of 0.15 mg or 1.5 mg, vs no treatment, vehicle or myotubularin peptide (FIG. 5)) | effect on BTB integrity [4] | effect of UV treatment on peptide structure [5] | effects to perturb the inter-Sertoli TJ barrier ([1]; 4 μM (data not shown)) | radioactivity detected in RTF [4, 6] | radioactivity detected in STF [4, 6] |
| --- | --- | --- | --- | --- | --- | --- | --- | --- | --- | --- | --- | --- | --- | --- | --- | --- | --- | --- | --- |
| H-GSQIYTICSQFYTPGGTGLYVD-OH [occludin peptide] | approximately 50% | non-toxic | dose-dependent decline in TER | 3 to 4 days | no apparent differences | 20-30% | ≤ 40 days | began to repopulate in the epithelium | appeared normal | began to deplete from the epithelium | Massive depletion of germ cells | spermatocytes were clearly visible in all the tubules examined | indistinguishable from control rats | reduction in testicular weight | disruption of the BTB | did not alter its structure | – | – | – |
| NH2—TKVNERYELCDTYPALLAVPAN—COOH (H-TKVNERYELCDTYPALLAVPAN-OH) [myotubularin peptide] | – | – | – | – | – | – | – | – | – | – | – | – | – | – | failed to induce disruption of the BTB | – | no apparent effects | indistinguishable from control rats | indistinguishable from control rats |
